Measurements taken from PMC5889558, “The inhibition of human lung fibroblast proliferation and differentiation by Gs-coupled receptors is not predicted by the magnitude of cAMP response” (Respiratory Research, 2018).
Each block holds one compound with its values, some of them ahead of it.

What was measured:
[1] = tested on: human lung fibroblasts (HLF); test: cAMP accumulation in HLF (HitHunter or AlphaScreen); assay type: cell-based; conditions: HLF, 2 h, mean ± SEM, NC = not calculated due to incomplete curve; for cAMP pEC50 / EC50: room temperature, 5 μM rolipram (excluded for PDE inhibitors), at least 3 experiments; for cAMP Emax (% max) / Emax: percentage of the maximal forskolin response; for EC50 / Emax: Homo sapiens, Fibroblast; for EC50: read-out: cAMP pEC50 (converted); for Emax: read-out: cAMP Emax (% max)
Description: HLF were grown to confluency in 96-well white ViewPlates, before incubation with a range of agonist concentrations, or vehicle, for 2 h at room temperature in HBSS with 5 mM HEPES, 0.1% w/v HSA, and 5 μM rolipram. […] Rolipram was excluded when measuring cAMP levels in response to PDE inhibitors. cAMP levels were measured using either HitHunter cAMP assay or AlphaScreen competition assay following manufacturer protocol, and were assessed on either a BMG LABTEK ClarioStar or a Packard EnVision plate reader. cAMP concentrations in each well were determined using a standard curve. To account for the inter-assay variation in levels of cAMP produced in each experiment, data were normalized to the maximal forskolin response.

[2] = tested on: human lung fibroblasts (HLF); test: HLF proliferation by BrdU incorporation (DELFIA), driven by FBS or PDGF; assay type: cell-based; conditions: 24 h; for maximal level of inhibition of PDGF-driven proliferation: near maximal PDGF; for Proliferation vs PDGF Emax (% max) / Proliferation vs PDGF pEC50 / Proliferation vs serum pEC50 / Proliferation vs serum Emax (% max) / Emax / EC50: inhibition of BrdU incorporation, NC = not calculated due to incomplete curve; for Proliferation vs PDGF pEC50 / Proliferation vs serum pEC50 / EC50: mean ± SEM; for Emax / EC50: Homo sapiens, Fibroblast
Description: (§1) Proliferation of HLF was measured by incorporation of bromodeoxyuridine (BrdU). HLF were seeded overnight at 4000 cells/well in 96-well black ViewPlates, before being starved for 24 h in culture medium devoid of FBS. Proliferation was measured after incubation with a range of concentrations of FBS or PDGF, in DMEM supplemented with 0.1% w/v HSA, for 24 h.
For anti-remodelling assays using BrdU incorporation, cells were incubated for 24 h with a range of concentrations of test compounds in the presence of near maximal concentrations of FBS or PDGF in DMEM supplemented with 0.1% w/v HSA. Proliferation was assessed using the DELFIA BrdU incorporation assay kit following manufacturer protocol. Fluorescence was measured using a Packard EnVision plate reader. To account for the inter-assay variation in levels of proliferation in each experiment, data were normalized to the PDGF or FBS response.

[3] = tested on: human lung fibroblasts (HLF); test: Fibroblast to myofibroblast transdifferentiation (FMT), αSMA immunofluorescence, TGFβ-driven; assay type: cell-based; conditions: 48 h, TGFβ 0.3 ng/mL
Description: To assess the differentiation of fibroblasts to the myofibroblast phenotype, immunofluorescence was used to monitor increases in α smooth muscle actin (αSMA). HLF were seeded overnight at 1000 cells/well in 384-well black clear bottom plates, before being starved for 24 h growth medium devoid of FBS.
For anti-remodelling assays using FMT, cells were incubated for 48 h with a range of concentrations of test compounds and incubated for 48 h, at 37°C, 5% CO2 in the presence of a near maximal concentration of TGFβ (0.3 ng/mL), to promote differentiation in DMEM supplemented with 0.1% w/v HSA. Following stimulation, cells were fixed in 4% paraformaldehyde, washed 3× in PBS (with Ca^2+/Mg^2+), and incubated with permeabilising blocking buffer (dPBS (with Ca^2+/Mg^2+), 10% FBS (v/v), 0.1% Triton X-100 (v/v)) for 1 h at 37°C. Wells were then washed 3× in wash buffer (Tris Buffered Saline (TBS), 0.05% (v/v) Tween-20) and incubated with mouse anti-α SMA (1:1000 dilution in permeabilising blocking buffer) for 1 h at room temperature, with gentle shaking. Following 3× wash in wash buffer, wells were incubated with blocking buffer containing Hoechst to stain for nuclear DNA (2 μM), and FITC-conjugated Affini-pure goat […] IgG (1:1000 dilution in blocking buffer) for 30 min at 37°C. Fluorescence was then quantified on a widefield ImageXpress Micro microscope, with a Plan Fluor 20X objective, DAPI filter cube (excitation 400–418 nm, emission 435–470 nm), 50 ms exposure time for nuclei, and FITC filter cube (excitation 467–498 nm, emission 513–556 nm), 200 ms exposure time for αSMA.
To quantify increases in αSMA fluorescence, a standard Multi-Wavelength Cell Scoring algorithm was used in MetaXpress 5.3 software (Molecular Devices, California, USA). To account for the inter-assay variation in levels of αSMA expression produced in each experiment, data were normalized to the response to TGFβ.

[4] = tested on: human lung fibroblasts (HLF); test: Cell viability assay, caspase-3/7 as marker of apoptosis; assay type: cell-based; conditions: 24 h
Description: Cell viability was measured using caspase-3/7 expression as a marker of apoptosis after treatment for 24 h with test compounds. HLF were seeded overnight at 6,000 cells/well in 96-well black ViewPlates, before being starved for 24 hours in culture medium devoid of FBS. Cells were incubated for 24 hours in the presence of test compounds at the top concentrations used in the proliferation assays, or in the presence of 100 nM staurosporine to induce apoptosis.
The presence of the apoptotic marker caspase-3/7 was detected by incubating cells with 8 μM CellEvent™ Caspase-3/7 Red Detection Reagent in dPBS with 5 % FBS, for 30 minutes at 37°C. […] Images were analyzed using a multi wavelength cell scoring algorithm within the MetaXpress 5.3 software, which measures cell number using stained nuclei, and percent of these cells positive for caspase-3/7 from Cy5 readouts. To account for the inter-assay variation in levels of caspase 3/7 detected in each experiment, data were normalized to the staurosporine response.
Statistical significance across treatment groups was determined by using the one-way ANOVA with Dunnett’s multiple-comparison post hoc test.

[5] = tested on: human lung fibroblasts (HLF); test: HLF proliferation by nuclei count; assay type: cell-based
Description: as §1, with “nuclei count. Human lung fibroblasts (HLF)” for “incorporation of bromodeoxyuridine (BrdU). HLF”, “4,000” for “4000”, “0.1 %” for “0.1%”, “24, 48, 72, or 96 h for nuclei count assay.” for “24 h.”
For anti-remodelling assays, cells were incubated for 48 h with a range of concentrations of test compounds in the presence of an EC80 concentration of FBS (1.8 % v/v). Following stimulation, cells were fixed with 4 % PFA and nuclei stained with Hoechst 33342 (1 μM) for 15 minutes at room temperature. Cells were then washed three times with dPBS before the plate was read using the widefield ImageXpress Micro microscope, with a Plan Fluor 4X objective, DAPI filter cube (excitation 400-418nm, emission 435-470nm), and 50 ms exposure time. Images were analysed using a nuclear count algorithm within the MetaXpress 5.3 software (Molecular Devices, California, USA). To account for the inter-assay variation in levels of proliferation in each experiment, data were normalized to the EC80 FBS response.

[6] = Agonist concentration remaining after incubation with HLF; assay type: in vitro ADME, human; conditions: after 24 h incubation with HLF; unpublished data
[7] = EC80 PDGF, percentage of maximal proliferation observed with PDGF
[8] = EC80 serum, percentage of maximal proliferation observed with serum
[9] = HLF, 1:10 dilution of top conc 30 μM
[10] = HLF, 1:10 dilution of top conc 10 μM
[11] = HLF, top conc 10 μM, mean ± SEM, n=3
[12] = EC80 PDGF, percentage of maximal proliferation observed with PDGF, read-out: Proliferation vs PDGF Emax (% max)
[13] = EC80 concentration of PDGF, read-out: Proliferation vs PDGF pEC50 (converted)
[14] = EC80 concentration of serum, read-out: Proliferation vs serum pEC50 (converted)
[15] = EC80 serum, percentage of maximal proliferation observed with serum, read-out: Proliferation vs serum Emax (% max)

Compound: N#Cc1c(N)nc(SCC(N)=O)c(C#N)c1-c1ccc(OCC2CC2)cc1 [BAY60–6583]
cAMP pEC50 [1]: 6.57 ± 0.06
cAMP Emax (% max) [1]: 10.2 ± 2.89 % max
inhibition of FBS- and PDGF-driven proliferation (in words) ([2]; BrdU, either stimulus): fully inhibit both FBS- and PDGF-driven proliferation
maximal level of inhibition of serum-driven proliferation ([2]; BrdU, near maximal FBS): 100%
maximal level of inhibition of PDGF-driven proliferation ([2]; BrdU): 100%
Proliferation vs PDGF Emax (% max) [2, 7]: 100 ± 0.01 % max
Proliferation vs PDGF pEC50 ([2]; EC80 concentration of PDGF): 5.30 ± 0.12
Proliferation vs serum pEC50 ([2]; EC80 concentration of serum): 5.30 ± 0.16
Proliferation vs serum Emax (% max) [2, 8]: 100 ± 0.01 % max
inhibition of TGFβ-driven FMT (in words) [3]: completely inhibit FMT
% cells positive for caspase-3/7, 1:10 dilution [4, 9]: 1.04 ± 0.38%
% cells positive for caspase-3/7, Top conc ([4]; HLF, top conc 30 μM): 0.62 ± 0.14%

Compound: CCNC(=O)[C@H]1O[C@@H](n2cnc3c(N)ncnc32)[C@H](O)[C@@H]1O [NECA]
cAMP pEC50 [1]: 5.39 ± 0.13
cAMP Emax (% max) [1]: 47.3 ± 3.40 % max
maximal level of inhibition of PDGF-driven proliferation ([2]; BrdU): 38%
Proliferation vs PDGF Emax (% max) [2, 7]: 37.8 ± 14.7 % max
Proliferation vs PDGF pEC50 ([2]; EC80 concentration of PDGF): 6.94 ± 0.43
inhibition of TGFβ-driven FMT (in words) [3]: full concentration-response curves could not be established
% cells positive for caspase-3/7, 1:10 dilution [4, 9]: 0.67 ± 0.09%
% cells positive for caspase-3/7, Top conc ([4]; HLF, top conc 30 μM): 1.04 ± 0.20%

Compound: Platelet-derived growth factor [PDGF]
maximal proliferation (BrdU incorporation) ([2]; normalized to maximal proliferation observed with 10% serum): 41.0 ± 8.62%
EC50 for stimulation of proliferation (nuclei count) ([5]; 72 h treatment): 3.77 ± 0.13 ng/mL
EC50 for stimulation of proliferation (nuclei count) ([5]; 96 h treatment): 7.26 ± 3.23 ng/mL
maximal proliferation (nuclei count) ([5]; 96 h treatment): 29.2 ± 15.2 % of the maximal serum response

Compound: AGN-205204
cAMP pEC50 [1]: 6.62 ± 0.12
cAMP Emax (% max) [1]: 49.7 ± 3.84 % max
Proliferation vs PDGF Emax (% max) [2, 7]: 101 ± 3.71 % max
Proliferation vs PDGF pEC50 ([2]; EC80 concentration of PDGF): 7.45 ± 0.25
Proliferation vs serum pEC50 ([2]; EC80 concentration of serum): 6.91 ± 0.48
Proliferation vs serum Emax (% max) [2, 8]: 51.3 ± 8.89 % max
maximal level of inhibition of FMT [3]: 71 % of the TGFβ response
% cells positive for caspase-3/7, 1:10 dilution [4, 10]: 0.56 ± 0.09%
% cells positive for caspase-3/7, Top conc [4, 11]: 0.57 ± 0.09%

Compound: NCCc1ccc(O)c(O)c1 [Dopamine]
EC50 [1]: 4070 nM
Emax [1]: 41.2 ± 10%
Emax [2, 12]: 73.5 ± 13.5%
EC50 [2, 13]: 16600 nM
inhibition of TGFβ-driven FMT (in words) [3]: full concentration-response curves could not be established
% cells positive for caspase-3/7, 1:10 dilution ([4]; human, 3 μM): 1.21 ± 0.34%
% cells positive for caspase-3/7, Top conc ([4]; human, 30 μM): 0.83 ± 0.14%

original concentration of agonist remaining [6]: > 90%
Compound: CC(C)N(CCCCOCC(=O)O)c1cnc(-c2ccccc2)c(-c2ccccc2)n1 [MRE-269]
EC50 [1]: 178 nM
Emax [1]: 52.9 ± 4.36%
Emax [2, 12]: 85.7 ± 7.65%
EC50 [2, 13]: 316 nM
inhibition of TGFβ-driven FMT (in words) [3]: completely inhibit FMT
% cells positive for caspase-3/7, 1:10 dilution [4, 10]: 0.49 ± 0.22%
% cells positive for caspase-3/7, Top conc [4, 11]: 0.49 ± 0.21%

Compound: OCc1cc(C(O)CNCCCCCCOCCCCc2ccccc2)ccc1O (stereo not drawn) [Salmeterol]
EC50 [1]: 0.123 nM
Emax [1]: 45.8 ± 3.53%
Emax [2, 12]: 89.2 ± 0.27%
EC50 [2, 13]: 0.0316 nM
EC50 [2, 14]: 0.263 nM
Emax [2, 15]: 37.7 ± 7.33%
maximal level of inhibition of FMT [3]: 51 % of the TGFβ response
% cells positive for caspase-3/7, 1:10 dilution ([4]; human, 10 nM): 0.66 ± 0.24%
% cells positive for caspase-3/7, Top conc ([4]; human, 100 nM): 0.40 ± 0.12%

original concentration of agonist remaining [6]: > 90%
Compound: CCCCC[C@H](O)CC[C@@H]1[C@H]2Cc3cccc(OCC(=O)O)c3C[C@H]2C[C@H]1O [Treprostinil]
EC50 [1]: 151 nM
Emax [1]: 101 ± 0.58%
Emax [2, 12]: 63.7 ± 6.39%
EC50 [2, 13]: 29.5 nM
EC50 [2, 14]: 102 nM
Emax [2, 15]: 42.5 ± 5.36%
% cells positive for caspase-3/7, 1:10 dilution ([4]; human, 1 μM): 0.92 ± 0.25%
% cells positive for caspase-3/7, Top conc ([4]; human, 10 μM): 0.76 ± 0.06%
